US9987276B2 (Celgene CAR LLC, priority 2008, dated 2018)
Like-named read-outs stand apart in the source and are kept apart here.

Key:
BTK [1] = target: T1, BTK (Homo sapiens (Human), UniProt Q06187); assay: BTK Ramos cellular assay (PLCγ2 phosphorylation); assay type: cell-based; conditions: Ramos cells, 1 hour compound, anti-IgM stimulation, p-PLCγ2; read-out: BTK Inhibition (IC50), BTK Ramos cellular inhibition
Procedure: Ramos cells were grown in suspension in T225 flasks, spun down, resuspended in 50 ml serum-free media and incubated for 1 hour. […] Ramos cells were incubated with compound for 1 hour, washed again and resuspended in 100 ul serum-free media. Cells were then stimulated with 1 μg of goat F(ab′)2 Anti-Human IgM and incubated on ice for 10 minutes to activate B cell receptor signaling pathways. After 10 minutes, the cells were washed once with PBS and then lysed on ice with Invitrogen Cell Extraction buffer. 16 μg total protein from lysates were loaded on gel and blots were probed for phosphorylation of the BTK substrate PLCγ2.

BTK [2] = target: T1, BTK; assay: Omnia assay for potency assessment against BTK; assay type: biochemical; conditions: [BTK]=5 nM, Omnia assay; read-out: BTK Inhibition (IC50)
Procedure: The modified BTK-optimized reagent conditions for the above protocol are:
[BTK]=5 nM, [ATP]=[…], [Y5-Sox]=[…] (ATP KMapp˜[…]).

ITK = ITK (Homo sapiens (Human), UniProt Q08881); assay: Omnia assay for potency assessment against active forms of ITK kinase; assay type: biochemical; conditions: [ITK]=10 nM, [ATP]=25, [Y6-Sox]=10 μM; read-out: ITK Inhibition
Procedure: [ITK]=10 nM, [ATP]=25 [Y6-Sox]=10 μM (ATP KMapp=33 μM).

EGFR-WT = EGFR-WT (Homo sapiens (Human), UniProt P00533); assay: Omnia assay for potency assessment against EGFR (WT)
[3] = read-out: EGFR (wild type inhibition), EGFR wild type

Sequence of ITK (Q08881 whole entry): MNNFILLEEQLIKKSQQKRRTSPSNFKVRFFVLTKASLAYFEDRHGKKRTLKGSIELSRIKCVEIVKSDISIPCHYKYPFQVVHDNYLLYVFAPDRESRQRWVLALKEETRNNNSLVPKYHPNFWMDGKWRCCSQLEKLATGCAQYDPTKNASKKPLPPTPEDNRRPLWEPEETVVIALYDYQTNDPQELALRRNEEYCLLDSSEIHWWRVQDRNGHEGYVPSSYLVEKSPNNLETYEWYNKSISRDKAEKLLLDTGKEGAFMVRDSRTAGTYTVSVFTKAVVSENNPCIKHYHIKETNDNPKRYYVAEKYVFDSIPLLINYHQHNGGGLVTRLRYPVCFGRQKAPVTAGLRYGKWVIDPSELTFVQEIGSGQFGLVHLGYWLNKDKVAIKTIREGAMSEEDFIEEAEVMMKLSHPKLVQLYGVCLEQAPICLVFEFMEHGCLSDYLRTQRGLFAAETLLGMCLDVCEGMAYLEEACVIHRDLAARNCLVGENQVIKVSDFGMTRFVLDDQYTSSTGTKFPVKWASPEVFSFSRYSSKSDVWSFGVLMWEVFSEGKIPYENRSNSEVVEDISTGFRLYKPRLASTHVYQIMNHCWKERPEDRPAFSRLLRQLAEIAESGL
T1 sequence (Q06187 whole entry): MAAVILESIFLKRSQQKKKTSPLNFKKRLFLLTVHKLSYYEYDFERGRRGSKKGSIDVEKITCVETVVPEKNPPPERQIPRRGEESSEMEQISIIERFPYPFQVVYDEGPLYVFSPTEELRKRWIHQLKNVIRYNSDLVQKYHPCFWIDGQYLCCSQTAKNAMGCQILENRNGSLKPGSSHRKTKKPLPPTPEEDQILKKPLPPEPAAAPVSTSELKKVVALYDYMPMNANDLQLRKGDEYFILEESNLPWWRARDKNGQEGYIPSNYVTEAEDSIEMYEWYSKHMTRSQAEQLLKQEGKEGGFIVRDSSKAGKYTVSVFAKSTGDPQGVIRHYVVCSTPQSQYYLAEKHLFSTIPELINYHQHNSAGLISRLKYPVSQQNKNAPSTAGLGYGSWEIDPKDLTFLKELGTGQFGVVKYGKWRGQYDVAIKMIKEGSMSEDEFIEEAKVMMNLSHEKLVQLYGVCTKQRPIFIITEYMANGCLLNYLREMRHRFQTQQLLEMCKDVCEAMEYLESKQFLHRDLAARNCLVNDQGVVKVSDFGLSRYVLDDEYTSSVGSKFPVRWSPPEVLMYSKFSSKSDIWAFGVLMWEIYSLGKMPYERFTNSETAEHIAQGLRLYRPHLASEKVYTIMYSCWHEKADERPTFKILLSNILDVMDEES
Sequence of EGFR-WT (P00533 668-1210): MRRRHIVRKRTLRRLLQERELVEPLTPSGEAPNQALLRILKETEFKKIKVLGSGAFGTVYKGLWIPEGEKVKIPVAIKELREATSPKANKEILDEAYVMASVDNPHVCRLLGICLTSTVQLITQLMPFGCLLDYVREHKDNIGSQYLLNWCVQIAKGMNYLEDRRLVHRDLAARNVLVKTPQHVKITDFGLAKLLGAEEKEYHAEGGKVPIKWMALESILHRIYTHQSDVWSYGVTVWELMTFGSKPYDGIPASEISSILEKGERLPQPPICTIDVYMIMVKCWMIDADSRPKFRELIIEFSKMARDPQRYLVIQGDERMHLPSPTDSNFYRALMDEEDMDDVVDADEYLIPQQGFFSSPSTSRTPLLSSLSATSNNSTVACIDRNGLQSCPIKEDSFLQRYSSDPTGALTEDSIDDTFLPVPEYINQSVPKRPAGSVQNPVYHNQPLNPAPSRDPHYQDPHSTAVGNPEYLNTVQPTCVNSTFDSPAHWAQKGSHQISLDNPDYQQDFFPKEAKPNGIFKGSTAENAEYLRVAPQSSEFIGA

IC50 (BTK [1]) [nM]	IC50 (BTK [2]) [nM]	IC50 (ITK) [nM]	IC50 (EGFR-WT) [nM]	IC50 (EGFR-WT; [3]) [nM]	Structure (SMILES)
< 10	< 10	10 to 100	100 to 1000		[2H]C([2H])([2H])Oc1ccc(Nc2ncc(F)c(Nc3cccc(NC(=O)C=C)c3)n2)cn1 [Compound I-95, N-(3-(5-fluoro-2-(6-(trideutereomethoxy)pyridine-3-ylamino)pyrimidin-4-ylamino)phenyl)acrylamide]
< 10	< 10	10 to 100	10 to 100		C=CC(=O)Nc1cccc(Nc2nc(Nc3ccc4c(c3)N(C(=O)C(F)(F)F)CCO4)ncc2F)c1 [Compound I-143, N-(3-(2-(4-trifluoroacetyl-2,3-dihydrobenzo[1,4]oxazin-6-yl)amino-5-fluoropyrimidin-4-ylamino)phenyl)acrylamide]
< 10	< 10	< 10		< 10	C=CC(=O)Nc1cccc(Nc2nc(Nc3ccccc3)ncc2C#N)c1 [Compound I-157, N-(3-(5-cyano-2-(phenylamino)pyrimidin-4-ylamino)phenyl)acrylamide]
10 to 100	< 10	< 10	100 to 1000		C=CC(=O)N1Cc2ccc(Nc3nc(Nc4ccc(OC)nc4)ncc3F)cc2C1 [Compound I-165, 1-(5-(5-fluoro-2-(6-methoxypyridin-3-ylamino)pyrimidin-4-ylamino)isoindolin-2-yl)prop-2-en-1-one]
< 10	< 10	10 to 100	10 to 100		C=CC(=O)Nc1cccc(Nc2nc(Nc3ccc(N(C)CCOC)nc3)ncc2F)c1 [Compound I-77]
10 to 100	< 10	< 10	10 to 100		C=CC(=O)Nc1cccc(Nc2nc(Nc3ccc(OC)nc3)ncc2OC)c1 [Compound I-192, N-(3-(5-methoxy-2-(6-methoxypyridin-3-ylamino)pyrimidin-4-ylamino)phenyl)acrylamide]
10 to 100	< 10	10 to 100	100 to 1000		C=CC(=O)N1CCC[C@@H](Oc2nc(Nc3cccc(OC)c3)ncc2F)C1 [Compound I-190, (R)-1-(3-(5-fluoro-2-(3-methoxyphenylamino)pyrimidin-4-yloxy)piperidin-1-yl)prop-2-en-1-one]
10 to 100	< 10	< 10	10 to 100		C=CC(=O)N1CCOc2ccc(Nc3nc(Nc4ccc(N5CCOCC5)nc4)ncc3C(C)=O)cc21 [Compound I-168, 1-{6-[5-Acetyl-2-(6-morpholin-4-yl-pyridin-3-ylamino)-pyrimidin-4-ylamino]-2,3-dihydro-benzo[1,4]oxazin-4-yl}-propenone]
10 to 100	< 10	< 10		< 10	C=CC(=O)N1CCOc2ccc(Nc3nc(Nc4ccc(OCCOC)cc4)ncc3C(C)=O)cc21 [Compound I-150, 1-(6-{5-Acetyl-2-[4-(2-methoxy-ethoxy)-phenylamino]-pyrimidin-4-ylamino}-2,3-dihydro-benzo[1,4]oxazin-4-yl)-propenone]
< 10	< 10	10 to 100	10 to 100		C=CC(=O)Nc1cccc(Nc2nc(Nc3ccc(OCCOC)nc3)ncc2F)c1 [Compound I-103, N-(3-(5-fluoro-2-(6-(2-methoxyethoxy)pyridine-3-ylamino)pyrimidin-4-ylamino)phenyl)acrylamide]
10 to 100	< 10	100 to 1000	100 to 1000		C=CC(=O)N(C)Cc1cccc(Nc2nc(Nc3ccccc3)ncc2C)c1 [Compound I-220, N-methyl-N-(3-(5-methyl-2-(phenylamino)pyrimidin-4-ylamino)benzyl)acrylamide]
10 to 100	< 10	< 10		< 10	C=CC(=O)Nc1cccc(Nc2nc(Nc3cccc(S(N)(=O)=O)c3)ncc2F)c1 [Compound I-160, N-(3-(5-fluoro-2-(3-sulfamoylphenylamino)pyrimidin-4-ylamino)phenyl)acrylamide]
100 to 1000	< 10	100 to 1000	10 to 100		C=CC(=O)N1CCC(Nc2nc(Nc3cccc(OC)c3)ncc2F)C1 (stereo not drawn) [Compound I-201, 1-(3-(5-fluoro-2-(3-methoxyphenylamino)pyrimidin-4-ylamino)pyrrolidin-1-yl)prop-2-en-1-one]
10 to 100	< 10	10 to 100	100 to 1000		COc1ccc(Nc2ncc(F)c(Nc3cccc(NC(=O)/C=C/CN(C)C)c3)n2)cn1 [Compound I-125, (E)-4-(dimethylamino)-N-(3-(5-fluoro-2-(6-methoxypyridin-3-ylamino)pyrimidin-4-ylamino)phenyl)but-2-enamide]
10 to 100	< 10	< 10	10 to 100		C=CC(=O)Nc1cccc(Nc2nc(Nc3ccc(OC)nc3)ncc2C(C)=O)c1 [Compound I-189, N-{3-[5-Acetyl-2-(6-methoxy-pyridin-3-ylamino)-pyrimidin-4-ylamino]-phenyl}-acrylamide]
< 10	< 10	10 to 100	10 to 100		C=CC(=O)Nc1cccc(Nc2nc(Nc3ccc(OCC(C)(C)O)nc3)ncc2F)c1 [Compound I-313, N-(3-(5-fluoro-2-(6-(2-hydroxy-2-methylpropoxy)pyridin-3-ylamino)pyrimidin-4-ylamino)phenyl)acrylamide]
< 10	< 10	< 10		< 10	C=CC(=O)Nc1cccc(Nc2nc(Nc3cccc(OCCN(C)C)c3)ncc2F)c1 [Compound I-233, N-(3-(2-(3-(2-(dimethylamino)ethoxy)phenylamino)-5-fluoropyrimidin-4-ylamino)phenyl)acrylamide]
< 10	< 10	< 10		< 10	C=CC(=O)Nc1cccc(Nc2nc(Nc3ccc(OCC4CCN(C)CC4)nc3)ncc2F)c1 [Compound I-78, N-(3-(5-fluoro-2-(6-((1-methylpiperidin-4-yl)methoxy)pyridin-3-ylamino)pyrimidin-4-ylamino)phenyl)acrylamide]
10 to 100	< 10	1000 to 10000		1000 to 10000	C=CC(=O)N(C)Cc1ccc(Nc2nc(Nc3ccc(OC)nc3)ncc2F)cc1 [Compound I-114, N-(4-(5-fluoro-2-(6-methoxypyridin-3-ylamino)pyrimidin-4-ylamino)benzyl)-N-methylacrylamide]
10 to 100	< 10	100 to 1000	100 to 1000		C=CC(=O)Nc1cc(Nc2nc(Nc3ccc(OC(C)C)nc3)ncc2F)ccc1Cl [Compound I-107, N-(2-chloro-5-(5-fluoro-2-(6-isopropoxypyridin-3-ylamino)pyrimidin-4-ylamino)phenyl)acrylamide]
10 to 100	< 10	10 to 100	10 to 100		C=CC(=O)Nc1cccc(Nc2nc(Nc3cccc(OCCCN4CCOCC4)c3)ncc2F)c1 [Compound I-208, N-(3-(5-fluoro-2-(3-(3-morpholinopropoxy)phenylamino)pyrimidin-4-ylamino)phenyl)acrylamide]
100 to 1000	< 10	100 to 1000		< 10	C=CC(=O)Nc1cccc(Oc2nc(Nc3ccc(OC)nc3)ncc2C(=O)Nc2ccccc2)c1 [Compound I-159, 4-(3-acrylamidophenoxy)-2-(6-methoxypyridin-3-ylamino)-pyrimidine-5-carboxylic acid phenylamide]
< 10	< 10	10 to 100	10 to 100		C=CC(=O)Nc1cccc(Nc2nc(Nc3cccc(OCC(C)(C)O)c3)ncc2F)c1 [Compound I-118, N-(3-(5-fluoro-2-(3-(2-hydroxy-2-methylpropoxy)phenylamino)pyrimidin-4-ylamino)phenyl)acrylamide]
10 to 100	< 10	10 to 100	10 to 100		C=CC(=O)Nc1cccc(Nc2nc(Nc3cccc(OC)c3)ncc2OC)c1 [Compound I-158, N-(3-(5-methoxy-2-(3-methoxyphenylamino)pyrimidin-4-ylamino)phenyl)acrylamide]
< 10	< 10	100 to 1000	100 to 1000		C=CC(=O)Nc1cccc(Nc2nc(Nc3ccc(Cl)c(OCCOC)c3)ncc2F)c1 [Compound I-321, N-(3-(2-(4-chloro-3-(2-methoxyethoxy)phenylamino)-5-fluoropyrimidin-4-ylamino)phenyl)acrylamide]
< 10	< 10	10 to 100	10 to 100		C=CC(=O)Nc1cccc(Nc2nc(Nc3cccc(OCCO)c3)ncc2F)c1 [Compound I-105, N-(3-(5-fluoro-2-(3-(2-hydroxyethoxy)phenylamino)pyrimidin-4-ylamino)phenyl)acrylamide]

Structure (SMILES)	IC50 (BTK [1]) [nM]	IC50 (BTK [2]) [nM]	IC50 (ITK) [nM]	IC50 (EGFR-WT) [nM]	IC50 (EGFR-WT; [3]) [nM]
C=CC(=O)Nc1cccc(Nc2nc(Nc3ccc(OC4CCC4)nc3)ncc2F)c1 [Compound I-79, N-(3-(2-(6-cyclobutoxypyridin-3-ylamino)-5-fluoropyrimidin-4-ylamino)phenyl)acrylamide]	< 10	< 10	10 to 100	100 to 1000	
